Experimental findings from US9163032B2, “Esters of DCPLA and methods of treatment using the same” (Blanchette Rockefeller Neurosciences Institute, priority 2011, dated 2015) are described below.

One series relates to synaptophysin. Nature of the series: Synaptophysin expression in primary hippocampal neurons (immunofluorescence, Western Blot). Type of series: cell-based, rat. Here is the method:
(§1) Cells were grown in two chambered slides (Nunc, USA) at low density. For immunofluorescence staining, the cells were washed with PBS (pH 7.4) and fixed with 4% paraformaldehyde for 4 min. Following fixation, the cells were blocked and permeabilized with 5% serum and 0.3% Triton X-100 in 1×PBS for 30 min. Cells were washed three times with 1×PBS and incubated with primary antibodies for 1 hr at 1:100 dilution. After the incubation, the slides were again washed three times in 1×PBS and were incubated with the FITC anti-mouse IgG and Rhodamine anti-rabbit IgG for 1 hr at 1:400 dilution. The cells were further washed and stained with DAPI (4′,6-diamidino-2′-phenylindole, dihydrochloride) (Thermo Scientific, USA) to stain the nucleus. Finally, the slides were washed and mounted in Pro Long Gold antifade mounting solution (Invitrogen, USA) and were viewed under a LSM 710 Meta confocal microscope (Zeiss) at 350 nm, 490 nm, and 540 nm excitation and 470 nm, 525 nm, and 625 nm emission for DAPI, FITC, and Rhodamine respectively. Six individual fields at 63× oil lens magnification were analyzed for the mean fluorescence intensity (MFI) in each channel.
(§2) Cells were harvested in homogenizing buffer containing 10 mM Tris-Cl (pH 7.4), 1 mM PMSF (phenylmethylsulfonyl fluoride), 1 mM EGTA, 1 mM EDTA, 50 mM NaF, and 20 μM leupeptin, and were lysed by sonication. The homogenate was centrifuged at 100,000×g for 15 min at 4° C. to obtain the cytosolic fraction (supernatant) and membrane (pellet). The pellet was resuspended in the homogenizing buffer by sonication. For whole cell protein isolation from primary neurons, the homogenizing buffer contained 1% Triton X-100. Protein concentration was measured using the Coomassie Plus (Bradford) Protein Assay kit (Pierce, USA). Following quantification, 20 μg of protein from each sample was subjected to SDS-PAGE analysis in a 4-20% gradient Tris-Glycine gel (Invitrogen, USA). The separated protein was then transferred to a nitrocellulose membrane. The membrane was blocked with 5% BSA at room temperature for 15 min and was incubated with primary antibody overnight at 4° C. After the incubation, it was washed three times with TBS-T (Tris Buffered Saline-Tween 20) and further incubated with alkaline phosphatase conjugated secondary antibody (Jackson Immunoresearch Laboratories, USA) at 1:10000 dilution for 45 min. The membrane was finally washed three times with TBS-T and developed using the 1-step NBT-BCIP substrate (Pierce, USA). The blot was imaged in an ImageQuant RT-ECL (GE Life Sciences, Piscataway, N.J.) and densitometric quantification was performed using IMAL software (Blanchette Rockefeller Neurosciences Institute, Morgantown, W. Va.). For translocation assays, PKC activation was represented as the percentage of total protein in the membrane (membrane/cytosol+membrane).
To estimate the synaptic damage caused by the ASPDs on primary hippocampal neurons, the expression of synaptophysin (a presynaptic marker) and PSD-95 (a postsynaptic marker) was measured by immunofluorescence staining. […] Following a 20 hr incubation period, the cells were stained for nucleus, PSD-95, and synaptophysin. Expression levels were calculated as the change of percentage in mean fluorescence intensity compared to untreated cells.
Primary neurons, treated and untreated, were immunostained for MAP-2, synaptophysin, and PSD-95 to determine the synaptic integrity. […] Following a 20 hr incubation period, the cells were stained for MAP-2, PSD-95, and synaptophysin as described above.
For orientation: A western blot detects proteins with antibodies after separation by electrophoresis.

The next series deals with PKC-ε mRNA. Nature of the series: PKC-ε mRNA by RT-PCR in primary neurons. Type of series: cell-based, rat. The note with it: primary neurons treated with ASPD and/or DCPLA-ME, normalized to β-actin. Here is the method:
RNA was isolated from the cells using Trizol reagent (Invitrogen, USA) following the manufacturer's protocol. Briefly, 5 μg of the total RNA was reverse transcribed using oligo (dT) and Superscript III (Invitrogen, USA) at 50° C. for 1 hr. Two μl of the cDNA product was amplified using primers for PKC-ε (Forward Primer—[…], Reverse primer—[…] (Origene, Rockville, Md.)) and β-actin (Promega, USA) for 30 cycles following standard PCR protocols using a 55° C. annealing temperature. The PCR amplicons were analyzed in an E-Gel (Invitrogen, USA). The gel was imaged using a Fuji Image gel scanner (FLA-9000, Fuji Film) and densitometric quantification was performed using IMAL software (Blanchette Rockefeller Neurosciences Institute, Morgantown, W. Va.). Data were represented as normalized ratio of PKC-ε OD (Optical Density) against β-actin OD for three independent experiments.
Primary neurons were treated with ASPD and/or DCPLA-ME. PKC-ε mRNA was quantified by RT-PCR as described above. RNA prepared from control and treated cultured primary rat hippocampal neurons were isolated and reverse transcribed. Individual cDNA was amplified for PKC-ε and β-actin. PKC-ε expression was normalized to β-actin.

The test system of another series is GSK-3β. Nature of the series: Phospho GSK-3β (Ser-9) Western Blot in ASPD treated primary neurons. Type of series: cell-based, rat. How it is done:
Phospho GSK-3β expression was normalized against total GSK-3β expression. […] Data are represented as mean±SEM. (Student's t test *.p<0.05; and **, p<0.005 n=3).
as §2, with “After the incubation, it was washed three times with TBS-T (Tris Buffered Saline-Tween 20) and further incubated with alkaline phosphatase conjugated secondary antibody (Jackson Immunoresearch Laboratories, USA) at 1:10000 dilution for 45 min. The membrane was finally washed three times with TBS-T and developed using the 1-step NBT-BCIP substrate (Pierce, USA).” left out, “For translocation assays, PKC activation was represented as the percentage of total protein in the membrane (membrane/cytosol+membrane).” left out

For series [1], the system named is cultured primary rat hippocampal neurons. The experiment in a line: Neuroprotection against ASPD induced toxicity, MTT assay, primary neurons. Type of series: cell-based. How it is done: Viability of cells was measured by MTT assay. MTT (i.e., 3-(4,5-dimethylthiazol-2-yl)-2,5-diphenyltetrazolium bromide) is a tetrazolium salt that is cleaved to formazan by the succinate dehydrogenase, which is only active in viable cells. After solubilization of the formazan, the amount of dye can be quantified with a microplate reader at 570 nm along with a reference of 630 nm. For the MTT assay, 5×10^4 primary rat hippocampal neurons from 18-day-old embryonic Sprague-Dawley rat brains or SH-SY5Y cells were plated on each well of 24-well plates coated with poly-D-lysine. After treatment, the cells were washed with 1× PBS and were incubated with 200 μl of 1 mg/ml MTT solution (Sigma, USA) at 37° C. for 2 hr. Then the MTT-solution was removed and the cells were lysed with 200 μl isopropanol containing 0.04 M HCl and […] for 10 min. Finally, the reading was taken at 570 nm and 630 nm. All the samples were done in triplicate and the data were represented as the percentage of control.
Bryostatin 1, DCPLA, and DCPLA-ME were tested against ASPD-induced cytotoxicity to determine their neuroprotective efficacy.
On the technique in general: Formazan colour is commonly taken as a measure of viable cells.

In a further series the test system is MAP-2. Nature of the series: MAP-2 expression in primary hippocampal neurons (immunofluorescence). Type of series: cell-based, rat. The note with it: 20 hr. Here is the method: as §1
Primary neurons, treated and untreated, were immunostained for MAP-2, synaptophysin, and PSD-95 to determine the synaptic integrity. […]

Turning to `CCCCCC1CC1CC1CC1CCCCCCCC(=O)OC` (stereo not drawn) [DCPLA-ME, DCPLA methyl ester], the “synaptophysin mean fluorescence intensity” value with synaptophysin (50 nM ASPD + 100 nM DCPLA-ME, 20 hr) is 87.48±3.75 % of control. Also, the PKC-ε transcript levels result in the series on PKC-ε mRNA is “increased PKC-ε transcript levels”. The “phosphorylation of the Ser-9 residue of GSK-3β” value in the series on GSK-3β (ASPD (50 nM) + DCPLA-ME (100 nM)) was “restored phosphorylation of the Ser-9 residue of GSK-3β to normal levels”. The “more viable than Bryostatin 1-treated cells” value in series [1] (50 nM ASPD, DCPLA-ME 100 nM vs Bryostatin 1 0.27 nM) was determined as 16%. For the same compound, the “more viable than DCPLA-treated cells” value in series [1] (50 nM ASPD, DCPLA-ME 100 nM vs DCPLA 10 μM) was 8%. The “MAP-2 mean fluorescence intensity” value in the series on MAP-2 (50 nM ASPD + 100 nM DCPLA-ME) is listed as 68.87±2.0 % of control.
On to “ASPD: Amylospheroids from Aβ1-42, 100 kDa filter retentate, containing 39 monomers on average”, for which the “synaptophysin mean fluorescence intensity” value is on record as 63.3±3.8 % of control in the series on synaptophysin (50 nM ASPD, 20 hr) and 62.45±6.74 % of control with synaptophysin (50 nM ASPD, 20 hr, listed as ASPDs). Moreover, the “decrease in synaptophysin intensity” value in the series on synaptophysin (50 nM, 20 hr) amounted to 40%. The “decrease of synaptophysin expression (Western Blot)” value with synaptophysin (ASPD) turned out to be 26%. Further, the “synaptophysin expression (Western Blot)” value in the series on synaptophysin (ASPD, relative to control) is given as 73.30%. In addition, in the series on PKC-ε mRNA, the PKC-ε transcript levels result is reported as “did not change PKC-ε mRNA significantly”. Further, in the series on GSK-3β (ASPD 50 nM), the GSK-3β activation state entry is given as “activated GSK-3β”. For the same compound, the “viability of primary neurons” value in series [1] (50 nM ASPD alone, 20 hr) was determined as 57.6±1.6%. Besides, the “MAP-2 mean fluorescence intensity” value in the series with MAP-2 (50 nM ASPD) was 40.7±6.2 % of control.
